Results as given in patent publication US11701355B2, “Levosimendan for treating pulmonary hypertension with heart failure with preserved ejection fraction (PH-HFpEF)” (Tenax Therapeutics, Inc., priority 2019, dated 2023).

Columns and labels:
PH-HFpEF patients = test: Open-label extension (rollover) study: six-minute walk distance and Likert quality of life; assay type: in vivo, human
Method: This is an open-label rollover study to allow patients to continue levosimendan treatment if the patient has tolerated treatment in the HELP clinical study seen in Example 1.
Study drug concentrated solution (2.5 mg/mL), levosimendan, is mixed with diluent and administered as weekly infusions at 0.075 μg/kg/min for 24 hrs. Patients may have a dose escalation at Weeks 3 at a rate of 0.10 μg/kg/min for 24 hours, unless there has been a meaningful change in blood pressure or heart rate or other prohibitive rationale.
Visits at Weeks 3, 6, 12, 24, 48 and Follow-Up Visit (at termination) are performed within 72 hours of the scheduled weekly visit. These visits are performed at the investigator's office. The Follow-Up Visit (at termination) is calculated as the earlier of two years from the subject's date of entry into this extension study or as soon as possible after study discontinuation, but within 1 week. During this visit, the following procedures are performed: Vital signs; body weight (Week 3 only); 6MWT; Quality of Life assessment; NYHA Functional Class; Physician Assessment; assess adverse events, and concomitant medications and/or procedures.

[1] = Pharmacokinetic study, subcutaneous vs IV administration, plasma levosimendan and OR-1896 by HPLC/MS/MS; settings: male, Sprague Dawley, rat, in vivo
Method: A pharmacokinetic study was conducted in male Sprague Dawley rats to compare subcutaneous administration of a composition of the present invention with IV administration of a formulation of levosimendan. The study evaluated levosimendan blood levels and pain at the injection site.
This study involved comparing the results of administering two subcutaneous compositions according to embodiments of the present invention to a previous pharmacokinetic study in which male rats were dosed by tail vein levosimendan as an IV bolus injection at 0.5 mg/kg using a 0.25 mg/ml solution. Thus, this study comprised three study arms: • a. IV administration of a composition comprising levosimendan (0.25 mg/ml) and phosphate buffer (10 mmolar), prepared in sterile water for injection and adjusted to a pH of 7.0 to 7.9 using 1 N NaOH or 10 N NaOH; this composition was administered at a dose of 0.5 mg/kg. • b. Subcutaneous administration of a composition comprising levosimendan (1.0 mg/ml), Captisol® (100 mg/ml), and phosphate buffer (10 mmolar), prepared in sterile water for injection and adjusted to a pH of 7.0 to 7.9 using 1 N NaOH or 10 N NaOH; this composition was administered at a dose of 0.5 mg/kg. • c. […]
Plasma samples were analyzed for levosimendan and OR-1896 (the primary metabolite) by HPLC/MS/MS. […]

## C[C@@H]1CC(=O)NN=C1c1ccc(NN=C(C#N)C#N)cc1 [levosimendan, Levosimendan]
PH-HFpEF patients; n=8
  increase of six-minute walk distance, average: 30 meters
  patients with increased overall sense of well-being (five-point Likert Scale): 7 out of 8
PH-HFpEF patients; n=8, baseline 292
  six-minute walk distance after levosimendan, average: 322 meters
PH-HFpEF patients; patients who improved
  improvement on the five-point Likert scale: 1-2 points
[1]
  start of the β phase (loss from blood mainly due to metabolism): about 2 hours
